# Literature values as cited in US12472190B2, “Pharmaceutical compositions” (CIPLA Limited, priority 2010, dated 2025).
# Conditions: relative to S (−) isomer of budesonide; no test described
smiles,measurement,value
CCC[C@@H]1O[C@@H]2C[C@H]3[C@@H]4CCC5=CC(=O)C=C[C@]5(C)[C@H]4[C@@H](O)C[C@]3(C)[C@]2(C(=O)CO)O1 [R (+) budesonide],anti-inflammatory properties as compared to S (−) isomer,nearly three times as strong
